# Data as given in patent publication US10603335B2, “Cancer treatment combination compositions, methods and uses” (Board of Supervisors of Louisiana State University and …, priority 2016, dated 2020).
# Experiments:
# [1] = system: LHRHR knock-down (KD) Panc-1 spheroides; assay: 3D spheroid growth, LHRHR knock-down (KD) Panc-1; format: cell-based; settings: LHRHR KD Panc-1; 30 μM
# [2] = four mice treated with LHRH-curcumin twice a week (20 mg/kg)
# Method: Samples of tumor tissue were weighed, then pulverized using a Bessman Tissue Pulverizer cooled 3-5 minutes in liquid nitrogen. Resultant powder was then placed in glass homogenizing chamber, mixed in PBS to 20% solution, and crushed to produce final homogenate. 200 Ml aliquot of homogenate was dispensed in Axygen 2 mL clear microtube (Part #: MCT-200-C-S). Each sample was extracted with 1 mL 10% methanol/90% ethyl acetate, vortexed, and spun 30 minutes at 14,000 rpm in a cold room centrifuge. The upper organic phase layer was then removed and placed in separate microcentrifuge tubes. The procedure was repeated, and pooled tumor extracts were concentrated using a Savant SpeedVac. Samples were reconstituted in 100 μL of 1 mM ascorbic acidic MeOH (pH 4.6), mixed in a sonication bath for 2 minutes, and 75 μL were injected on-column. Reverse-phase HPLC (Agilent 1100 series) with a Thermo ODS Hypersil 5 μm 250 mm×4.6 mm analytical column (Part #: 30105-252130) operated at ambient temperature was used to quantify curcumin in tumor. The mobile phase was 0.1% TFA (Mobile A) and acetonitrile with 0.08% TFA (Mobile B). […] With all analyses performed at 0.5 mL/min flow rate and fluorescence detection at Ex 420 nm and Em 524 nm, curcumin eluted at about 16.5 minutes.
# [3] = system: XIAP, cIAP1 and cIAP2 mRNA in Panc-1 cells; assay: Quantitative PCR of inhibitors of apoptosis, Panc-1; format: cell-based; settings: 50 uM, 24 h post-treatment, relative to DMSO, GAPDH reference
# Method: mRNA levels of XIAP, c-IAP1 and c-IAP2 were determined by quantitative real-time PCR using the SYBR Green Real-Time PCR Master Mix form ThermoFisher. Thermal cycling was carried out using the CFX system from BioRad under the following conditions: 95° C. for 10 min and 40 cycles at 95° C. for 15 s and 55° C. for 60 s. mRNA expression for any given gene is represented as comparative to the DMSO-treated cells. GAPDH was used as the housekeeping gene of reference.
# GAPDH was used as a reference. Results presented in FIG. 12A (XIAP relative mRNA levels), FIG. 12B (cIAP1 relative mRNA levels), FIG. 12C (cIAP2 relative mRNA levels).
# PATX162 tissue slices = assay: Live Tissue Sensitivity Assay (LTSA), PATX162; format: cell-based; settings: single agent, 72 hours
# Method: (§1) Animal experiment protocol was reviewed and approved by The University of Texas MD Anderson Cancer Center (Houston, Tex.) institutional review board and in accordance with the Guidelines for the Care and Use of Laboratory Animals published by the National Institutes of Health. PDXs were grown from cryopreserved early passages of PDXs in nude mice as described in previous publications (Kim M P, et al, Nat Protoc 2009; 4(11): 1670-80). Briefly, tumor samples stored in CryoStor™ CS10 storage medium were recovered and cut into about 2 mm3 fragments, soaked in Matrigel, and implanted into the subcutaneous space of Balb/c nude mice (5 mice/PDX). Tumors were harvested when they reach 1.5 cm in diameter for generating tissue slices for drug testing with quadruplicates.
# (§2) About 100 tissue slices were produced from 1 tumorgraft with tissue slicer and arrayed in 96-well plates with previously established method (Roife D, et al, Clin Cancer Res 2016). […] Same volume of medium with 0.1% DMSO was added into control wells. After 72 hours, tissue viabilities were measured with PrestoBlue method. Viability inhibition will be calculated through normalization of viabilities of tissue slices treated with inhibitor against the viability of control (DMSO treated) slices. Inhibition of viability was further analyzed with t-test. […]
# PATX213 tissue slices = assay: Live Tissue Sensitivity Assay (LTSA), PATX213; format: cell-based; settings: single agent, 72 hours
# Method: as §1, §2
# PDAC PDXs tissue slices = assay: Live Tissue Sensitivity Assay (LTSA), panel of PDAC PDXs; format: cell-based; settings: 16 PDAC PDXs tested; single agent
# Method: as §1, §2
# [4] = system: TGFβ pathway genes in PATC53 pancreatic cancer cells; assay: Quantitative PCR of TGFβ pathway genes, PATC53; format: cell-based; settings: TGFβ 100 ng/ml, LHRH-curcumin 20 μM and 50 μM
# Method: GAPDH was used as a reference.
# mRNA levels of Smad3, SNAI1, SNAI2, TGFBRI, TGFBRII, GADD45 and XIAP were determined by quantitative real-time PCR using the Roche Universal Library Probe protocol. Thermal cycling was carried out using the LightCycler96 system from Roche under the following conditions: 95° C. for 10 min and 40 cycles at 95° C. for 15 s and 55° C. for 60 s. mRNA expression for any given gene is represented as comparative to the control-treated cells. GAPDH was used as the housekeeping gene of reference.
# [5] = system: non-target control (NT) Panc-1 spheroides; assay: 3D spheroid growth, non-target control (NT) Panc-1; format: cell-based; settings: 30 μM
# physchem = settings: saline (PBS)
compound,measurement,setting,value
"COc1cc(/C=C/C(=O)CC(=O)/C=C/c2ccc(OC(=O)CCCC(=O)NCCCC[C@@H](NC(=O)[C@H](Cc3ccc(O)cc3)NC(=O)[C@H](CO)NC(=O)[C@H](Cc3c[nH]c4ccccc34)NC(=O)[C@H](Cc3c[nH]cn3)NC(=O)[C@@H]3CCC(=O)N3)C(=O)N[C@@H](CC(C)C)C(=O)N[C@@H](CCCNC(=N)N)C(=O)N3CCC[C@H]3C(=O)NCC(N)=O)c(OC)c2)ccc1O [LHRH-curcumin, [DLys6]-LHRH-Curcumin]",spheroids growth,[1],"still has an effect on spheroids growth formed by LHRHR KD cells, its effect was inferior to that of curcumin alone"
same,free curcumin in tumor tissue extract (HPLC peak at approximately 16.5 min),[2],free curcumin present in the extract
same,"mRNA levels of XIAP, cIAP1 and c-IAP2",[3],down-regulated
same,Sensitivity To LHRH-C,PATX162 tissue slices,Sensitive (The tissue was defined as sensitive to the treatment if both p<0.05 and at least 30% of tissue slice viability on average was inhibited)
same,Sensitivity To LHRH-C,PATX213 tissue slices,Sensitive (The tissue was defined as sensitive to the treatment if both p<0.05 and at least 30% of tissue slice viability on average was inhibited)
same,number of PDXs sensitive,PDAC PDXs tissue slices,8
same,mRNA levels of GADD45 and XIAP,[4],affected
same,"mRNA levels of TGFβ signaling genes (SMAD3, SNAI1, SNAI2, TGFBRI, TGFBRII)",[4]; 24 h and 48 h,down-regulated
same,spheroids growth,[5],superior to that of LHRH or curcumin alone
same,solubility,physchem,≥ 24 mg/mL
